According to ChEMBL document CHEMBL5154798, “Structure-based discovery of receptor tyrosine kinase AXL degraders with excellent anti-tumor activity by selectively degrading AXL and inducing methuosis” (Eur J Med Chem, 2022):
Activity calls are given as the source filed them. No cut-off for these calls is given here.

Legend:
[1] = Tmax in male Sprague-Dawley rat at 20 mg/kg, po administered as single dose measured by LC/MS/MS analysis; type: ADME, organism-based; details: in vivo
[2] = Systemic toxicity in female BALB/c nude mouse xenografted with human MDA-MB-231 cells assessed as inflammatory cell infiltration in kidney at 25 mg/kg, ip; type: organism-based; details: in vivo
[3] = Systemic toxicity in female BALB/c nude mouse xenografted with human MDA-MB-231 cells assessed as inflammatory cell infiltration in lung at 25 mg/kg, ip; type: organism-based; details: in vivo
[4] = Systemic toxicity in female BALB/c nude mouse xenografted with human MDA-MB-231 cells assessed as necrosis of heart tissue at 25 mg/kg, ip; type: organism-based; details: in vivo
[5] = AUC (0 to t) in male Sprague-Dawley rat at 20 mg/kg, po administered as single dose measured by LC/MS/MS analysis; type: ADME, organism-based; set-up: dose 20 mg/kg, route po; details: in vivo
4T1 [6] = assay: Antiproliferative activity against mouse 4T1 cells highly expressing AXL after 72 hrs by MTT assay; details: 4T1, 72 h
[7] = Half-life in male Sprague-Dawley rat at 20 mg/kg, po administered as single dose measured by LC/MS/MS analysis; type: ADME, organism-based; details: in vivo
[8] = Cmax in male Sprague-Dawley rat at 2 mg/kg, iv administered as single dose measured by LC/MS/MS analysis; type: ADME, organism-based; set-up: dose 2 mg/kg, route iv; details: in vivo
4T1 [9] = assay: Induction of cytoplasmic vacuolation in mouse 4T1 cells at 0.5 uM; type: functional, cell-based
MDA-MB-231 [10] = assay: Antitumor activity against human MDA-MB-231 cells xenografted in female BALB/c nude mouse assessed as tumor growth inhibition at 25 mg/kg, ip; type: functional, organism-based
[11] = Tmax in male Sprague-Dawley rat at 2 mg/kg, iv administered as single dose measured by LC/MS/MS analysis; type: ADME, organism-based; details: in vivo
MDA-MB-231 [12] = assay: Induction of macropinocytosis in human MDA-MB-231 cells measured by MitoTracker staining based fluorescence microscopy; type: functional, cell-based
MDA-MB-231 [13] = assay: Induction of cytoplasmic vacuolation in human MDA-MB-231 cells at 1 uM in presence of 1 uM pan-caspase inhibitor Z-VAD-FMK; type: functional, cell-based
MDA-MB-231 [14] = assay: Antiproliferative activity against human MDA-MB-231 cells highly expressing AXL after 72 hrs by MTT assay; details: MDA-MB-231, 72 h
[15] = Cytotoxicity against human GES1 cells after 72 hrs by MTT assay; type: toxicity, cell-based
[16] = AUC (0 to t) in male Sprague-Dawley rat at 2 mg/kg, iv administered as single dose measured by LC/MS/MS analysis; type: ADME, organism-based; set-up: dose 2 mg/kg, route iv; details: in vivo
[17] = Cmax in male Sprague-Dawley rat at 20 mg/kg, po administered as single dose measured by LC/MS/MS analysis; type: ADME, organism-based; set-up: dose 20 mg/kg, route po; details: in vivo
MDA-MB-231 [18] = assay: Induction of macropinocytosis in human MDA-MB-231 cells assessed as co-localization of Rab7 with lucifer yellow measured by immunofluorescence assay; type: functional, cell-based
[19] = Clearance in male Sprague-Dawley rat at 2 mg/kg, iv administered as single dose measured by LC/MS/MS analysis; type: ADME, organism-based; details: male, Sprague-Dawley, in vivo
Mus musculus = assay: In vivo induction of CRBN-mediated AXL degradation in mouse measured after 6 hrs; type: functional, organism-based
[20] = Cytotoxicity against human MCF-10A cells after 72 hrs by MTT assay; type: toxicity, cell-based
[21] = Systemic toxicity in female BALB/c nude mouse xenografted with human MDA-MB-231 cells assessed as necrosis of spleen tissue at 25 mg/kg, ip; type: organism-based; details: in vivo
[22] = Systemic toxicity in female BALB/c nude mouse xenografted with human MDA-MB-231 cells assessed as inflammatory cell infiltration in spleen at 25 mg/kg, ip; type: organism-based; details: in vivo
[23] = Systemic toxicity in female BALB/c nude mouse xenografted with human MDA-MB-231 cells assessed as inflammatory cell infiltration in liver at 25 mg/kg, ip; type: organism-based; details: in vivo
[24] = Half-life in male Sprague-Dawley rat at 2 mg/kg, iv administered as single dose measured by LC/MS/MS analysis; type: ADME, organism-based; details: in vivo
[25] = Systemic toxicity in female BALB/c nude mouse xenografted with human MDA-MB-231 cells assessed as necrosis of lung tissue at 25 mg/kg, ip; type: organism-based; details: in vivo
[26] = Systemic toxicity in female BALB/c nude mouse xenografted with human MDA-MB-231 cells assessed as inflammatory cell infiltration in heart at 25 mg/kg, ip; type: organism-based; details: in vivo
MDA-MB-231 [27] = assay: Induction of cytoplasmic vacuolation in human MDA-MB-231 cells at 0.5 uM; type: functional, cell-based
[28] = Systemic toxicity in female BALB/c nude mouse xenografted with human MDA-MB-231 cells assessed as necrosis of kidney tissue at 25 mg/kg, ip; type: organism-based; details: in vivo
MDA-MB-231 [29] = assay: Induction of macropinocytosis in human MDA-MB-231 cells measured by LysoTracker staining based fluorescence microscopy; type: functional, cell-based
MDA-MB-231 [30] = assay: Induction of macropinocytosis in human MDA-MB-231 cells assessed as co-localization of LAMP-1 with lucifer yellow measured by immunofluorescence assay; type: functional, cell-based
[31] = Oral bioavailability in male Sprague-Dawley rat at 20 mg/kg administered as single dose measured by LC/MS/MS analysis; type: ADME, organism-based; details: in vivo
[32] = Toxicity in female BALB/c nude mouse xenografted with human MDA-MB-231 cells assessed as change in body wieght at 25 mg/kg, ip; type: organism-based; details: in vivo
[33] = Systemic toxicity in female BALB/c nude mouse xenografted with human MDA-MB-231 cells assessed as necrosis of liver tissue at 25 mg/kg, ip; type: organism-based; details: in vivo

For `Nc1nc(Nc2ccc(CNC(=O)CCCCCCCNc3cccc4c3CN(C3CCC(=O)NC3=O)C4=O)cc2)nn1-c1ccc(-c2ccccc2)nn1` (centres undefined), which Tmax [1] is on record?
The Tmax was 1.89 h.

And the Activity [2]?
Its Activity is “Non-Toxic”.

What about the Activity [3] of the same compound?
Its Activity is “Non-Toxic”.

What about the Activity [4] of the same compound?
The Activity was “Non-Toxic”.

What about the AUC(0-t) [5] of the same compound?
Its AUC(0-t) is 865 ng·h/mL.

What about the IC50 (4T1 [6]) of the same compound?
Its IC50 is 5.53 µM.

And the half-life [7]?
The half-life was 2.37 h.

And the Cmax [8]?
Its Cmax is 166 ng/mL.

What about the Activity (4T1 [9]) of the same compound?
The Activity was “Active”.

What about the TGI (MDA-MB-231 [10]) of the same compound?
Its TGI is “Active”.

And the Tmax [11]?
Its Tmax is 0.54 h.

And the Activity (MDA-MB-231 [12])?
The Activity was “Active”.

What about the Activity (MDA-MB-231 [13]) of the same compound?
Its Activity is “Active”.

And the IC50 (MDA-MB-231 [14])?
Its IC50 is 10.3 µM.

What about the IC50 at 72 h [15] of the same compound?
The IC50 at 72 h was greater than 60 µM.

What about the AUCt [16] of the same compound?
Its AUCt is 2933.4 ng·h/mL.

What about the Cmax [17] of the same compound?
Its Cmax is 92 ng/mL.

And the Activity (MDA-MB-231 [18])?
Its Activity is “Active”.

What about the clearance [19] of the same compound?
The clearance was 11.3 mL/min/kg.

What about the Activity (Mus musculus) of the same compound?
The Activity was “Active”.

What about the IC50 at 72 h [20] of the same compound?
The IC50 at 72 h was greater than 60 µM.

And the Activity [21]?
The Activity was “Non-Toxic”.

What about the Activity [22] of the same compound?
Its Activity is “Non-Toxic”.

What about the Activity [23] of the same compound?
Its Activity is “Non-Toxic”.

And the t1/2 [24]?
The t1/2 was 0.72 h.

And the Activity [25]?
The Activity was “Non-Toxic”.

What about the Activity [26] of the same compound?
The Activity was “Non-Toxic”.

And the Activity (MDA-MB-231 [27])?
The Activity was “Active”.

What about the Activity [28] of the same compound?
Its Activity is “Non-Toxic”.

What about the Activity (MDA-MB-231 [29]) of the same compound?
Its Activity is “Active”.

And the Activity (MDA-MB-231 [30])?
Its Activity is “Active”.

What about the bioavailability [31] of the same compound?
Its bioavailability is 4.93%.

And the Activity [32]?
The Activity was “Non-Toxic”.

And the Activity [33]?
Its Activity is “Non-Toxic”.
